Legend:
[1] = system: IL-2 release from stimulated Jurkat cells; test: Human IL-2 Release Phenotypic Assay (Assay 3); format: cell-based; conditions: Jurkat cells (clone E6-1), 200 ng/mL PMA + 300 ng/mL ionomycin, IL-2 by ELISA
Procedure: This assay measured the inhibition by MALT1 inhibitors of the IL-2 release from stimulated Jurkat cells, a human immortalized T lymphocyte cell line. IL-2 production from Jurkat cells is regulated by activation of NFκB signalling, which is in turn regulated by MALT1 protease activity.
Jurkat cells (clone E6-1, ATCC) were cultured in RPMI1640 supplemented with 10% (v/v) FBS and 1% (v/v) penicillin/streptomycin (100× liquid stocks). Cells were seeded in 96-well white tissue culture-treated plates (Perkin Elmer) at 50 000 cells/well and incubated overnight at 37° C., 5% CO2. Test compounds in DMSO at half-log dilutions were added to the cells and incubated for 30 mins. Final DMSO concentration was 0.5%. Cells were then stimulated with 200 ng/mL PMA+300 ng/mL ionomycin and incubated for 48 hours. […] IC50 values were calculated using GraphPad Prism using 4-parameter non-linear regression curve fit.

FL hMALT1 enzyme = target: T1, FL hMALT1 enzyme (Homo sapiens, UniProt Q9UDY8); test: biochemical;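 also: Cell-free protease assay: enzyme preincubated with compound 30 min at room temperature, then cleavage of fluorogenic Ac-LVSR-AMC substrate (100 µM) tracked by fluorescence (ex 360/em 460 nm)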
T1 sequence (Q9UDY8 1-824): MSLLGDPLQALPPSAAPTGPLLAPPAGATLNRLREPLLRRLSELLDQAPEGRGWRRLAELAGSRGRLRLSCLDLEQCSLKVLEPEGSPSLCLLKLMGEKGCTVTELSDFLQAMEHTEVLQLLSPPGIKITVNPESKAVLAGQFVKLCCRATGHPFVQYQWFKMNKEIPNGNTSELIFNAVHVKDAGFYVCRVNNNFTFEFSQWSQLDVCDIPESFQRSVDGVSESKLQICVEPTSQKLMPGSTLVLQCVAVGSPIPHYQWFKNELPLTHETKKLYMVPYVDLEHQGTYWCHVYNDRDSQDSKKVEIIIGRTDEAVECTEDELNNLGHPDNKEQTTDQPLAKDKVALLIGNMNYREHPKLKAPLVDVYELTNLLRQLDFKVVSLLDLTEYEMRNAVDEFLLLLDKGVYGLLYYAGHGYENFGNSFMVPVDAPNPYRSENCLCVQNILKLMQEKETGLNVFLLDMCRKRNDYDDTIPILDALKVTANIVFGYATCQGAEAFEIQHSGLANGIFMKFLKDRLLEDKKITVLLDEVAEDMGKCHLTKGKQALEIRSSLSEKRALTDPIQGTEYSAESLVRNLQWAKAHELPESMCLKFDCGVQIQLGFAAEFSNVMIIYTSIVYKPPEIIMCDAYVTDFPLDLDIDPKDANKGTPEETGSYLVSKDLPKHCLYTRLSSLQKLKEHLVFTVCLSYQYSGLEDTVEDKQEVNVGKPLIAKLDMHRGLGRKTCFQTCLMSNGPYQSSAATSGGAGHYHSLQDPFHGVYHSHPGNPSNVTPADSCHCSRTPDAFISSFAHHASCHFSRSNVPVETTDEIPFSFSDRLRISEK
Procedure: MALT1 protease activity was assessed in vitro by measuring the cleavage of a fluorogenic tetrapeptide substrate.
For a higher sensitivity assay, commercially available FL hMALT1 enzyme (Abcam, 1-10 nM) was incubated with substrate (Ac-LVSR-AMC, 100 μM) in reaction buffer comprising 50 mM HEPES (pH7.0), 25 mM KCl, 0.1% (v/v) CHAPS, 1 mM TCEP and 0.7 M sodium citrate.
Test compounds dissolved in DMSO were dispensed into assay plates (384-well, black, shallow ProxiPlates). 7 μl enzyme solution was added and incubated at room temperature for 30 minutes to allow compound binding to occur. 2 μl substrate solution was then added and the fluorescence (excitation 360 nm, emission 460 nm) read every 15 minutes using a suitable plate reader. Final assay DMSO concentration was 1%. […] IC50 values were calculated using GraphPad Prism using a 4-parameter non-linear regression curve fit.

`CN(C(=O)C1CCC(=O)NC1)[C@@H](c1ccc(NC2Cc3ccccc3C2(C)C)cn1)C(F)(F)F` (single isomer, unassigned) [Example 104] was tested, and the IC50 ([1]; 48 hours) was 2.7 µM and the IC50 (FL hMALT1 enzyme) was 0.14 µM.
In the case of `CN(C(=O)C1CCC(=O)NC1)[C@@H](c1ccc(NC2Cc3ccccc3C2(C)C)cn1)C(F)(F)F` (single isomer, unassigned) [Example 105], the IC50 ([1]; 48 hours) is reported as 0.23 µM and the IC50 (FL hMALT1 enzyme) is reported as 0.036 µM.
`CN(C(=O)C1CCC(=O)NC1)[C@@H](c1ccc(NC2Cc3ccccc3C2(C)C)cn1)C(F)(F)F` (single isomer, unassigned) [Example 106] showed an IC50 ([1]; 48 hours) of 0.54 µM and an IC50 (FL hMALT1 enzyme) of 0.13 µM.
For `CN(C(=O)C1CCC(=O)NC1)[C@@H](c1ccc(NC2Cc3ccccc3C2(C)C)cn1)C(F)(F)F` (single isomer, unassigned) [Example 107], the IC50 ([1]; 48 hours) was 0.41 µM and the IC50 (FL hMALT1 enzyme) was 0.045 µM.
`CN(C(=O)C1CNC(=O)O1)[C@@H](c1ccc(N[C@@H]2Cc3ccccc3C2(C)C)cn1)C(F)(F)F` (single isomer, unassigned) [Example 108] gave an IC50 ([1]; 48 hours) of 0.9 µM and an IC50 (FL hMALT1 enzyme) of 0.15 µM.
Work on `CN(C(=O)C1CNC(=O)O1)[C@@H](c1ccc(N[C@@H]2Cc3ccccc3C2(C)C)cn1)C(F)(F)F` (single isomer, unassigned) [Example 109] yielded an IC50 ([1]; 48 hours) of 0.9 µM and an IC50 (FL hMALT1 enzyme) of 0.76 µM.
In the case of `CN(C(=O)C1CNC(=O)O1)[C@@H](c1ccc(N[C@@H]2Cc3ccccc3C2(C)C)cn1)C(F)(F)F` (single isomer, unassigned) [Example 110], the IC50 ([1]; 48 hours) is reported as 0.149 µM and the IC50 (FL hMALT1 enzyme) is reported as 0.016 µM.
`CN(C(=O)C1CNC(=O)O1)[C@@H](c1ccc(N[C@@H]2Cc3ccccc3C2(C)C)cn1)C(F)(F)F` (single isomer, unassigned) [Example 111] showed an IC50 ([1]; 48 hours) of 0.65 µM and an IC50 (FL hMALT1 enzyme) of 0.052 µM.
Compound `CN(C(=O)[C@H]1C[C@H](N(C)C)C1)[C@@H](c1ccc(NC2Cc3ccccc3C2(C)C)cn1)C(F)(F)F` (single isomer, unassigned) [Example 112] has an IC50 ([1]; Homo sapiens, Jurkat, 48 h) of 0.43 µM and an IC50 (FL hMALT1 enzyme) of 0.23 µM.
In the case of `CN(C(=O)[C@H]1C[C@H](N(C)C)C1)[C@@H](c1ccc(NC2Cc3ccccc3C2(C)C)cn1)C(F)(F)F` (single isomer, unassigned) [Example 113], the IC50 ([1]; 48 hours) is reported as 0.49 µM and the IC50 (FL hMALT1 enzyme) is reported as 0.067 µM.
Work on `CN(C(=O)[C@H]1C[C@H](N(C)C)C1)[C@@H](c1ccc(NC2Cc3ccccc3C2(C)C)nc1)C(F)(F)F` (single isomer, unassigned) [Example 114] yielded an IC50 ([1]; Homo sapiens, Jurkat, 48 h) of 1.02 µM and an IC50 (FL hMALT1 enzyme) of 0.19 µM.
Work on `CN(C(=O)[C@H]1C[C@H](N(C)C)C1)[C@@H](c1ccc(NC2Cc3ccccc3C2(C)C)nc1)C(F)(F)F` (single isomer, unassigned) [Example 115] yielded an IC50 ([1]; 48 hours) of 0.51 µM and an IC50 (FL hMALT1 enzyme) of 0.24 µM.
Work on `CN(C(=O)C1CCNC(=O)C1)[C@@H](c1ccc(NC2Cc3ccccc3C2(C)C)cn1)C(F)(F)F` (single isomer, unassigned) [Example 116] yielded an IC50 ([1]; 48 hours) of 0.51 µM and an IC50 (FL hMALT1 enzyme) of 0.068 µM.
For `CN(C(=O)C1CCNC(=O)C1)[C@@H](c1ccc(NC2Cc3ccccc3C2(C)C)cn1)C(F)(F)F` (single isomer, unassigned) [Example 117], the IC50 ([1]; 48 hours) was 2.06 µM and the IC50 (FL hMALT1 enzyme) was 0.24 µM.
Work on `CN(C(=O)C1CCNC(=O)C1)[C@@H](c1ccc(NC2Cc3ccccc3C2(C)C)cn1)C(F)(F)F` (single isomer, unassigned) [Example 118] yielded an IC50 ([1]; 48 hours) of 0.28 µM and an IC50 (FL hMALT1 enzyme) of 0.049 µM.
With `CN(C(=O)C1CCNC(=O)C1)[C@@H](c1ccc(NC2Cc3ccccc3C2(C)C)cn1)C(F)(F)F` (single isomer, unassigned) [Example 119] the IC50 ([1]; 48 hours) was 1.72 µM and the IC50 (FL hMALT1 enzyme) was 0.15 µM.
`CN(C(=O)C1CCCNC1)[C@@H](c1ccc(NC2Cc3ccccc3C2(C)C)cn1)C(F)(F)F` (single isomer, unassigned) [Example 124] gave an IC50 ([1]; 48 hours) of 1.29 µM and an IC50 (FL hMALT1 enzyme) of 0.19 µM.
For `CN(C(=O)C1CCCNC1)[C@@H](c1ccc(NC2Cc3ccccc3C2(C)C)cn1)C(F)(F)F` (single isomer, unassigned) [Example 125], the IC50 ([1]; 48 hours) was 0.33 µM and the IC50 (FL hMALT1 enzyme) was 0.062 µM.
In the case of `CN(C(=O)C1CCCNC1)[C@@H](c1ccc(NC2Cc3ccccc3C2(C)C)cn1)C(F)(F)F` (single isomer, unassigned) [Example 126], the IC50 ([1]; 48 hours) is reported as 0.7 µM and the IC50 (FL hMALT1 enzyme) is reported as 0.12 µM.
In the case of `CN1CCCC(C(=O)N(C)[C@@H](c2ccc(NC3Cc4ccccc4C3(C)C)cn2)C(F)(F)F)C1` (single isomer, unassigned) [Example 129], the IC50 ([1]; Homo sapiens, Jurkat, 48 h) is reported as 1.8 µM and the IC50 (FL hMALT1 enzyme) is reported as 0.21 µM.
Compound `CN1CCCC(C(=O)N(C)[C@@H](c2ccc(NC3Cc4ccccc4C3(C)C)cn2)C(F)(F)F)C1` (single isomer, unassigned) [Example 130] has an IC50 ([1]; 48 hours) of 1.08 µM and an IC50 (FL hMALT1 enzyme) of 0.12 µM.
`CN1CCC(C(=O)N(C)[C@@H](c2ccc(NC3Cc4ccccc4C3(C)C)cn2)C(F)(F)F)CC1` (single isomer, unassigned) [Example 132] showed an IC50 ([1]; 48 hours) of 1.37 µM and an IC50 (FL hMALT1 enzyme) of 0.25 µM.
Compound `CN1CCC(C(=O)N(C)[C@@H](c2ccc(NC3Cc4ccccc4C3(C)C)cn2)C(F)(F)F)CC1` (single isomer, unassigned) [Example 133] has an IC50 ([1]; 48 hours) of 0.6 µM and an IC50 (FL hMALT1 enzyme) of 0.15 µM.
`CN(C(=O)C1CNC(=O)CO1)[C@@H](c1ccc(NC2Cc3ccccc3C2(C)C)cn1)C(F)(F)F` (single isomer, unassigned) [Example 134] gave an IC50 ([1]; 48 hours) of 0.71 µM and an IC50 (FL hMALT1 enzyme) of 0.16 µM.
`CN(C(=O)C1CNC(=O)CO1)[C@@H](c1ccc(NC2Cc3ccccc3C2(C)C)cn1)C(F)(F)F` (single isomer, unassigned) [Example 136] was tested, and the IC50 ([1]; 48 hours) was 0.31 µM and the IC50 (FL hMALT1 enzyme) was 0.036 µM.
`CN(C(=O)C1CNC(=O)CO1)[C@@H](c1ccc(NC2Cc3ccccc3C2(C)C)cn1)C(F)(F)F` (single isomer, unassigned) [Example 137] gave an IC50 ([1]; 48 hours) of 1.25 µM and an IC50 (FL hMALT1 enzyme) of 0.15 µM.
Compound `CN(C(=O)C1CN2CCC1CC2)[C@@H](c1ccc(NC2Cc3ccccc3C2(C)C)cn1)C(F)(F)F` (single isomer, unassigned) [Example 140] has an IC50 ([1]; Homo sapiens, Jurkat, 48 h) of 1.27 µM and an IC50 (FL hMALT1 enzyme) of 0.18 µM.
In the case of `CN(C(=O)C1CN2CCC1CC2)[C@@H](c1ccc(NC2Cc3ccccc3C2(C)C)cn1)C(F)(F)F` (single isomer, unassigned) [Example 141], the IC50 ([1]; 48 hours) is reported as 1.23 µM and the IC50 (FL hMALT1 enzyme) is reported as 0.21 µM.
Work on `CN(C(=O)N1CCS(=O)(=O)CC1)[C@@H](c1ccc(NC2Cc3ccccc3C2(C)C)cn1)C(F)(F)F` (single isomer, unassigned) [Example 142] yielded an IC50 ([1]; Homo sapiens, Jurkat, 48 h) of 1.79 µM and an IC50 (FL hMALT1 enzyme) of 0.2 µM.
`CN(C(=O)[C@H]1C[C@@H](NS(C)(=O)=O)C1)[C@@H](c1ccc(N[C@H]2Cc3ccccc3C2(C)C)cn1)C(F)(F)F` [Example 241, (1,3-cis)-N—((S)-1-(5-(((S)-1,1-Dimethyl-2,3-dihydro-1H-inden-2-yl)amino)pyridin-2-yl)-2,2,2-trifluoroethyl)-N-methyl-3-(methylsulfonamido)cyclobutane-1-carboxamide] showed an IC50 ([1]; Homo sapiens, Jurkat, 48 h) of 0.4 µM.
`CN(C(=O)[C@@H]1C[C@@H](O)CN1S(C)(=O)=O)[C@@H](c1ccc(N[C@H]2Cc3ccccc3C2(C)C)cn1)C(F)(F)F` [Example 244, (2S,4R)—N—((S)-1-(5-(((S)-1,1-Dimethyl-2,3-dihydro-1H-inden-2-yl)amino)pyridin-2-yl)-2,2,2-trifluoroethyl)-4-hydroxy-N-methyl-1-(methylsulfonyl)pyrrolidine-2-carboxamide] gave an IC50 ([1]; Homo sapiens, Jurkat, 48 h) of 0.27 µM.
With `CNC(=O)[C@H]1C[C@H](C(=O)N(C)[C@@H](c2ccc(N[C@H]3Cc4ccccc4C3(C)C)cn2)C(F)(F)F)C1` [Example 247, (1,3-trans)-N—((S)-1-(5-(((S)-1,1-Dimethyl-2,3-dihydro-1H-inden-2-yl)amino)pyridin-2-yl)-2,2,2-trifluoroethyl)-N^1,N^3-dimethylcyclobutane-1,3-dicarboxamide] the IC50 ([1]; Homo sapiens, Jurkat, 48 h) was 0.17 µM.
With `Cc1cc2c(cc1C)CC(Nc1ccc([C@H](N(C)C(=O)C3CCS(=O)(=O)CC3)C(F)(F)F)nc1)C2` [Example 260, (S)—N-(1-(5-((5,6-Dimethyl-2,3-dihydro-1H-inden-2-yl)amino)pyridin-2-yl)-2,2,2-trifluoroethyl)-N-methyltetrahydro-2H-thiopyran-4-carboxamide 1,1-dioxide] the IC50 ([1]; Homo sapiens, Jurkat, 48 h) was 0.86 µM.
`CN(C(=O)[C@@H]1CNC(=O)C1)[C@@H](c1ccc(N[C@H]2Cc3ccc(Cl)cc3C2)cn1)C(F)(F)F` [Example 300, (S)—N—((S)-1-(5-(((S)-5-Chloro-2,3-dihydro-1H-inden-2-yl)amino)pyridin-2-yl)-2,2,2-trifluoroethyl)-N-methyl-5-oxopyrrolidine-3-carboxamide] was tested, and the IC50 ([1]; Homo sapiens, Jurkat, 48 h) was 0.35 µM.
